The target of the test is T1, IKK-2 (Homo sapiens, UniProt O14920).
T1 construct: endogenous in cells; host or cells: primary keratinocytes from a healthy control and from Patient#1
T1 sequence (O14920 1-756): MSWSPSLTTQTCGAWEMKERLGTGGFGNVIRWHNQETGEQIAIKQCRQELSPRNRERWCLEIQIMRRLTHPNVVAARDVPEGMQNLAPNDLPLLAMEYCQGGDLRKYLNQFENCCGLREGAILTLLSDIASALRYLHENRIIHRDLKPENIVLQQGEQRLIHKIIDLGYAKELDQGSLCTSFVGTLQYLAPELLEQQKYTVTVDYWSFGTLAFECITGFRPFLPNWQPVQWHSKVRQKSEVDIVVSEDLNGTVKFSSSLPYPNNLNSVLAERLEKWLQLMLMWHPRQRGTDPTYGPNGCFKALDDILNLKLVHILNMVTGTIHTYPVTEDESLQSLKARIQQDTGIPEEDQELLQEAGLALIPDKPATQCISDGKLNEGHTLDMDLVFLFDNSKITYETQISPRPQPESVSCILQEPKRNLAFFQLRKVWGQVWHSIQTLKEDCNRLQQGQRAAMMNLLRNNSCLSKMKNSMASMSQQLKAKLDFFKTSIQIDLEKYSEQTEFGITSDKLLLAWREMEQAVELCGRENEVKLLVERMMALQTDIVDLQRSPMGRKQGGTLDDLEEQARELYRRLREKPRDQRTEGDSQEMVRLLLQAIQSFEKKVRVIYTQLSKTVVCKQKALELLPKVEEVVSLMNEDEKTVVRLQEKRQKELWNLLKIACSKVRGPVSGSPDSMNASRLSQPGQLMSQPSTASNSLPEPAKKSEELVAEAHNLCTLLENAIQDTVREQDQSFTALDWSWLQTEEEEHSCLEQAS
Briefly: Inhibition of IKK-2 by ML120B in keratinocytes (IL8 mRNA by RT-qPCR). In kind it is cell-based. The settings on record: Patient#1 keratinocytes; ML120B 20 μM preincubated 1 h, then 10 ng/ml IL-1β, 24 h. How it is done: Total RNAs were isolated from cultured keratinocytes, HEK293T cells and frozen skin biopsies from the two patients and controls using the RNeasy Plus Minikit (Qiagen GmbH, Hilden, Germany), according to the manufacturer's instructions. RNA samples were reverse-transcribed into cDNA using the High Capacity cDNA Reverse Transcriptase Kit (Applied Biosystems, Foster City, Calif., USA). Real-time PCR was carried out using the Fast SYBR Green PCR Master Mix (PE Applied Biosystems) on an ABI prism 7000 (PE Applied Biosystems). RT-qPCR primers were designed using the sequences available in Ensembl and spanned an intron-exon boundary. The amounts of the various mRNAs were normalized against the amount of beta actin RNA measured by RT-qPCR in each sample. The results were analyzed with DataAssist® (version 3.01, Applied Biosystems), which uses the comparative Ct (ddCt) method.
Keratinocytes from a healthy control and from Patient#1 were seeded into 12-well plates (100 000 cells/well). 24 hours later, keratinocytes were preincubated with ML120B 20 μM at 37° C. for 1 h and then stimulated with 10 ng/ml IL-1β. 24 hours after the stimulation, the cells were pelleted for RNA extraction. ML120B was sent as a gift by Emmanuel Laplantine (Institut Pasteur, Paris, France).

The structures appear in SMILES notation.

As to `COc1c(Cl)cc2c([nH]c3cnccc32)c1NC(=O)c1cccnc1C` [ML120B], the “production of IL8” value is reported as “restored the normal production of IL8”.
